34 compounds from patent US9006433B2, “Substituted pyrimidines” (Merck Sharp & Dohme Corp., priority 2010, dated 2015) can be followed below.

Structures are written as SMILES.

The assay addresses T1, PHD2 (Homo sapiens, UniProt Q9GZT9).
T1 construct: FLAG-tagged full length PHD2 expressed in and purified from baculovirus-infected Sf9 cells; FLAG; made in house; host or cells: baculovirus-infected Sf9 cells
Put plainly: PHD2 inhibition assay (time resolved fluorescence, HIF-1α peptide hydroxylation / VHL complex detection). The assay is classed as biochemical. The settings on record: FLAG-tagged full length PHD2; 0.2 μM 2-oxoglutarate, 0.5 μM HIF-1α peptide. How it is done:
To each well of a 96-well plate was added 1 μL of test compound in DMSO and 20 μl of assay buffer (50 mM Iris pH 7.4/0.01% Tween-20/0.1 mg/ml bovine serum albumin/10 μM ferrous sulfate/1 mM sodium ascorbate/20 μg/ml catalase) containing 0.15 μg/ml FLAG-tagged full length PHD2 expressed in and purified from baculovirus-infected Sf9 cells. After a 30 min preincubation at room temperature, the enzymatic reactions were initiated by the addition of […] of substrates (final concentrations of 0.2 μM 2-oxoglutarate and 0.5 μM HIF-1α peptide biotinyl-DLDLEMLAPYIPMDDDFQL (SEQ ID NO:1)). After 2 hr at room temperature, the reactions were terminated and signals were developed by the addition of a 25 μL quench/detection mix to a final concentration of 1 mM ortho-phenanthroline, 0.1 mM EDTA, 0.5 nM anti-(His)6 LANCE reagent (Perkin-Elmer Life Sciences), 100 nM AF647-labeled streptavidin (Invitrogen), and 2 μg/ml (His)-6-VHL complex (S. Tan(2001) Protein Expr. Purif. 21, 224-234). The ratio of time resolved fluorescence signals at 665 and 620 nm was determined, and percent inhibition was calculated relative to an uninhibited control sample run in parallel.

T1 sequence (Q9GZT9 whole entry, species assumed): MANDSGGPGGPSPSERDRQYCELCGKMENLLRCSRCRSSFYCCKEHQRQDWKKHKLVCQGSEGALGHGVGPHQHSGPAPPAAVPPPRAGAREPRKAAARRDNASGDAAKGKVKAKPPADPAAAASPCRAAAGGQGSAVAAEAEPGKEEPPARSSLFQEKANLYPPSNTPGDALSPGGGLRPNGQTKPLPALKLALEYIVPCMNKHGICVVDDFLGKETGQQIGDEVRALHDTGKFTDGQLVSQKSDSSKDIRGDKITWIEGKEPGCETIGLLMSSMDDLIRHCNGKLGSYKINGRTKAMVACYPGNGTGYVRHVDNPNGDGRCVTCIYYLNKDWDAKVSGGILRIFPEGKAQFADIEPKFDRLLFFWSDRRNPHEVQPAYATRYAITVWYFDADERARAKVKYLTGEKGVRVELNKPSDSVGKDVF

By IC50 is commonly meant the concentration at which inhibition is half-maximal. Low values mean higher potency, high ones lower potency. For `O=C(Nc1cnc(-n2cccn2)nc1O)C1CCc2ccccc2C1` (stereo not shown) [Compound 3-54, 1,2,3,4-tetrahydro-N-(4-hydroxy-2-(1H-pyrazol-1-yl)pyrimidin-5-yl)naphthalene-2-carboxamide], the IC50 is 20 to 100 nM. To `Oc1nc(-n2cccn2)ncc1-c1cnn(-c2ccccc2)c1` [Compound 11-1, 5-(1-phenyl-1H-pyrazol-4-yl)-2-(1H-pyrazol-1-yl)pyrimidin-4-ol] belongs 100 to 10000 nM; to `CC(C)(NC(=S)Nc1cnc(-n2cccn2)nc1O)c1ccccc1` [Compound 8-1, 1-(4-hydroxy-2-(1H-pyrazol-1-yl)pyrimidin-5-yl)-3-(2-phenylpropan-2-yl)thiourea], 20 to 100 nM; to `O=C(Nc1cnc(-n2cccn2)nc1O)c1ccc(Oc2ccccc2)cc1` [Compound 3-22, N-(4-hydroxy-2-(1H-pyrazol-1-yl)pyrimidin-5-yl)-4-phenoxybenzamide], 0.5 to 20 nM. `CC(C)(C)OC(=O)N1CCC(C(=O)Nc2cnc(-n3cccn3)nc2O)C1` (stereo not shown) [Compound 3-51, tert-butyl 3-(4-hydroxy-2-(1H-pyrazol-1-yl)pyrimidin-5-ylcarbamoyl)pyrrolidine-1-carboxylate] gave an IC50 of 20 to 100 nM.

In the case of `O=C(CCCc1ccccc1)Nc1cnc(-n2cccn2)nc1O` [Compound 3-45, N-(4-hydroxy-2-(1H-pyrazol-1-yl)pyrimidin-5-yl)-4-phenylbutanamide], the IC50 was 0.5 to 20 nM. `O=C(Nc1cnc(-n2cccn2)nc1O)c1ccccc1Oc1ccccc1` [Compound 3-20, N-(4-hydroxy-2-(1H-pyrazol-1-yl)pyrimidin-5-yl)-2-phenoxybenzamide] registered an IC50 of 20 to 100 nM.

As to `CS(=O)(=O)c1ccc(C(=O)Nc2cnc(-n3cccn3)nc2O)cc1` [Compound 3-16, N-(4-hydroxy-2-(1H-pyrazol-1-yl)pyrimidin-5-yl)-4-(methylsulfonyl)benzamide], the IC50 was 20 to 100 nM. For the compound `O=C(Cc1cnc(-n2cccn2)nc1O)Nc1ccc(Cl)cc1` [Compound 12-1, N-(4-chlorophenyl)-2-(4-hydroxy-2-(1H-pyrazol-1-yl)pyrimidin-5-yl)acetamide], the IC50 lay in the range of 100 to 10000 nM.

`O=C(OC(c1ccccc1)c1ccccc1)c1cnc(-n2cccn2)nc1O` [Compound 9-1, benzhydryl 4-hydroxy-2-(1H-pyrazol-1-yl)pyrimidine-5-carboxylate] came in with a half-maximal inhibitory concentration (IC50) of 100 to 10000 nM. The compound `O=C(Nc1cnc(-n2cccn2)nc1O)c1ccc(Cl)cc1` [Compound 3-3, 4-chloro-N-(4-hydroxy-2-(1H-pyrazol-1-yl)pyrimidin-5-yl)benzamide] showed a half-maximal inhibitory concentration (IC50) of 20 to 100 nM. To `CCC(C(=O)Nc1cnc(-n2cccn2)nc1O)c1ccccc1` (stereo not shown) [Compound 3-34, N-(4-hydroxy-2-(1H-pyrazol-1-yl)pyrimidin-5-yl)-2-phenylbutanamide] belongs 0.5 to 20 nM; to `O=C(Cc1cccc(C(F)(F)F)c1)Nc1cnc(-n2cccn2)nc1O` [Compound 3-28, 2-(3-(trifluoromethyl)phenyl)-N-(4-hydroxy-2-(1H-pyrazol-1-yl)pyrimidin-5-yl)acetamide], 0.5 to 20 nM; to `O=C(Nc1cnc(-n2cccn2)nc1O)c1ccc(-c2ccccc2)cc1` [Compound 3-19, N-[4-hydroxy-2-(1H-pyrazol-1-yl)pyrimidin-5-yl]biphenyl-4-carboxamide], 0.5 to 20 nM. Then `CCC(C)C(C(=O)Nc1cnc(-n2cccn2)nc1O)c1ccccc1` (stereo not shown) [Compound 3-36, N-(4-hydroxy-2-(1H-pyrazol-1-yl)pyrimidin-5-yl)-3-methyl-2-phenylpentanamide], with 0.5 to 20 nM; and `O=C(Cc1cccc2ccccc12)Nc1cnc(-n2cccn2)nc1O` [Compound 3-39, N-(4-hydroxy-2-(1H-pyrazol-1-yl)pyrimidin-5-yl)-2-(naphthalen-1-yl)acetamide], with 0.5 to 20 nM. Then `O=C(Nc1cnc(-n2cccn2)nc1O)Oc1ccccc1` [Compound 5-9, phenyl 4-hydroxy-2-(1H-pyrazol-1-yl)pyrimidin-5-ylcarbamate], with 100 to 10000 nM. For the compound `COc1cccc(C(=O)Nc2cnc(-n3cccn3)nc2O)c1` [Compound 3-12, N-(4-hydroxy-2-(1H-pyrazol-1-yl)pyrimidin-5-yl)-3-methoxybenzamide], the IC50 was 20 to 100 nM. The compound `Oc1nc(-n2cccn2)ncc1-c1ccccc1` [Compound 11-3, 5-phenyl-2-(1H-pyrazol-1-yl)pyrimidin-4-ol] yielded an IC50 of 100 to 10000 nM. For the compound `COc1ccccc1CC(=O)Nc1cnc(-n2cccn2)nc1O` [Compound 3-30, N-(4-hydroxy-2-(1H-pyrazol-1-yl)pyrimidin-5-yl)-2-(2-methoxyphenyl)acetamide], the IC50 was in the range of 0.5 to 20 nM.

Regarding `CC(C)(C)OC(=O)N1CCC(C(=O)Nc2cnc(-n3cccn3)nc2O)CC1` [Compound 3-47, tert-butyl4-(4-hydroxy-2-(1H-pyrazol-1-yl)pyrimidin-5-ylcarbamoyl)piperidine-1-carboxylate], the IC50 was in the range of 0.5 to 20 nM. For `Oc1nc(-n2cccn2)ncc1NC(=S)NC(c1ccccc1)c1ccccc1` [Compound 6-1, 1-benzhydryl-3-(4-hydroxy-2-(1H-pyrazol-1-yl)pyrimidin-5-yl)thiourea], the IC50 lay in the range of 0.5 to 20 nM. `O=C(Nc1cnc(-n2cccn2)nc1O)c1cccc(Cl)c1` [Compound 3-2, 3-chloro-N-(4-hydroxy-2-(1H-pyrazol-1-yl)pyrimidin-5-yl)benzamide]: the IC50 lay within 0.5 to 20 nM. `O=C(CC1CCCCC1)Nc1cnc(-n2cccn2)nc1O` [Compound 3-48, 2-cyclohexyl-N-(4-hydroxy-2-(1H-pyrazol-1-yl)pyrimidin-5-yl)acetamide] displayed an IC50 of 0.5 to 20 nM. `CC(C(=O)Nc1cnc(-n2cccn2)nc1O)c1ccccc1` (stereo not shown) [Compound 3-33, N-(4-hydroxy-2-(1H-pyrazol-1-yl)pyrimidin-5-yl)-2-phenylpropanamide] came in with an IC50 of 0.5 to 20 nM. Consider `CCCCCCC(=O)Nc1cnc(-n2cccn2)nc1O` [Compound 3-43, N-(4-hydroxy-2-(1H-pyrazol-1-yl)pyrimidin-5-yl)heptanamide], for which the IC50 was 0.5 to 20 nM. Consider `CC(C)(C(=O)Nc1cnc(-n2cccn2)nc1O)c1ccccc1` [Compound 3-37, N-(4-hydroxy-2-(1H-pyrazol-1-yl)pyrimidin-5-yl)-2-methyl-2-phenylpropanamide], for which the IC50 is 0.5 to 20 nM.

In turn, `O=C(Nc1cnc(-n2cccn2)nc1O)c1ccccc1-c1ccccc1` [Compound 3-17, N-[4-hydroxy-2-(1H-pyrazol-1-yl)pyrimidin-5-yl]biphenyl-2-carboxamide] yielded an IC50 of 20 to 100 nM. `N#Cc1ccccc1C(=O)Nc1cnc(-n2cccn2)nc1O` [Compound 3-7, 2-cyano-N-(4-hydroxy-2-(1H-pyrazol-1-yl)pyrimidin-5-yl)benzamide] returned an IC50 of 100 to 10000 nM. `N#Cc1cccc(C(=O)Nc2cnc(-n3cccn3)nc2O)c1` [Compound 3-8, 3-cyano-N-(4-hydroxy-2-(1H-pyrazol-1-yl)pyrimidin-5-yl)benzamide] registered an IC50 of 20 to 100 nM.

On to `O=C(Cc1ccccc1Cl)Nc1cnc(-n2cccn2)nc1O` [Compound 3-23, 2-(2-chlorophenyl)-N-(4-hydroxy-2-(1H-pyrazol-1-yl)pyrimidin-5-yl)acetamide], for which the IC50 lay within 0.5 to 20 nM. In turn, `O=C(Nc1cnc(-n2cccn2)nc1O)N(c1ccccc1)c1ccccc1` [Compound 5-7, 3-(4-hydroxy-2-(1H-pyrazol-1-yl)pyrimidin-5-yl)-1,1-diphenylurea] returned an IC50 of 0.5 to 20 nM. `O=C(Nc1cnc(-n2cccn2)nc1O)OC1CCCCC1` [Compound 5-10, cyclohexyl 4-hydroxy-2-(1H-pyrazol-1-yl)pyrimidin-5-ylcarbamate] registered an IC50 of 20 to 100 nM. For `O=C(Cc1cnc(-n2cccn2)nc1O)NC1CCCCC1` [Compound 12-2, N-cyclohexyl-2-(4-hydroxy-2-(1H-pyrazol-1-yl)pyrimidin-5-yl)acetamide], the IC50 fell in the range of 100 to 10000 nM.
